# US7858635B2 (priority 2005, dated 2010)
# Where two headings read alike, the source gives them in different places.
# Tests used:
# M1 muscarinic receptor = target: T1, M1 muscarinic receptor (Homo sapiens, UniProt P11229); assay: Functional mobilization of intracellular calcium (FLIPR, Fluo-3), M1-CHO cells; type: cell-based; conditions: for Emax: 100% efficacy is the maximum response obtained with the Carbachol control, read-out: M1 Efficacy
# T1 construct: expressed in transfected cells; host or cells: CHO cells (M1-CHO, under zeocin and G418 selection)
# T1 sequence (P11229 1-460): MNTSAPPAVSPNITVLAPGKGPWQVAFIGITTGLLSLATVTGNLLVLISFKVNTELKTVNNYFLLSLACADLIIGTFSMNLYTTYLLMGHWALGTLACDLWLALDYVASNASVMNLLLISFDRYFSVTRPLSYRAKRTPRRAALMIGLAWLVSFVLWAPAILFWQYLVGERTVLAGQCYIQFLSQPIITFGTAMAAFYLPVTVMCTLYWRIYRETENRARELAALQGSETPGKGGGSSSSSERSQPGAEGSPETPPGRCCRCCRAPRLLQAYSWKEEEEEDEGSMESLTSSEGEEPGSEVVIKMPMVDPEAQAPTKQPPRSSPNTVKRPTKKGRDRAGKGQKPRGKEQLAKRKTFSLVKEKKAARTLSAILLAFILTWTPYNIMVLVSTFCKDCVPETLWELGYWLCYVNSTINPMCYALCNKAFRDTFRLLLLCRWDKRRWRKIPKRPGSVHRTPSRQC
# Procedure: (§1) CHO cells expressing muscarinic receptors (M1 to M5) are grown as monolayers in tissue culture flasks at 37° C. in a humidified atmosphere containing 5% CO2 and passaged every 3-5 days. The growth media is Dulbecco's modified eagles medium (DMEM, Gibco Cat#12430-054), containing 25 mM Hepes and supplemented with Fetal Bovine Serum (Hyclone, cat# SH30071.03), 0.1 mM of MEM non-essential amino acids (GIBCO, Cat# 11140-050), 1 mM MEM Sodium Pyruvate (GIBCO Cat# 11360-070) and 100 units/ml of Penicillin G and 100 μg/ml of Streptomycin (GIBCO Cat# 15140-122). The recombinant muscarinic receptor cell lines are grown under antibiotic pressure with media containing 25 μm/ml zeocin and 500 μg/ml G418 (M1-CHO), 4 μg/ml puromycin, 50 μg/ml zeocin and 2.5 μm/ml blasticidin (M2 and M4-CHO) or 50 μg/ml zeocin and 4 μg/ml puromycin (M3 and M5-CHO).
# (§2) Cells are harvested at 80-90% confluence using Versene (GIBCO Cat# 15040-066), collected by centrifugation and seeded 18-24 hrs prior to running the calcium assay at a density of 5,000-10,000 cells/well in […], clear-bottomed 384-well plates (BD Biocoat, poly-D-lysine, Cat#356663). The day of the experiment, the cells are washed with a plate washer (Bioteck Instruments, ELX 405) using bath1 buffer (140-mM NaCl, 4.5-mM KCL, 2-mM CaCl2, 1-mM MgCl2, 10-mM Hepes-Na, 10-mM Glucose, pH 7.4, with NaOH) containing 1 mM Probenecid. Next, the calcium dye Fluo-3 (25 μl/well of Fluo-3 μM at 4 μM, Molecular Probes F-1241, in Bath 1 buffer containing 1 mM Probenecid) is added to the 25 μl of Bath 1 remaining in each well after the plate wash and the dye is loaded at 37° C. in the tissue culture incubator for 60-90 min. The fluorescent dye is removed using the plate washer with Bath 1 containing 1 mM Probenecid, leaving 25 μl/well of this solution after the wash. Alternatively, cells can be loaded with the calcium indicator from Molecular Devices (Calcium 3 Assay Reagents, Cat # R7181) adding 5 μl of a 5× solution dye in Bath 1 containing 1 mM Probenecid (10 ml per dye flask cat# R7182 to generate a solution 20×) to 20 μl of the same buffer. After loading for 60 min, the experiment can be run without having to remove the dye.
# (§3) Compounds are prepared at a 2× fold concentration in a 96-well plate (round bottom, Costar Corning cat# 3656), by reconstituting the pre-spotted compounds in bath 1 containing 1 mM probenecid. The final concentration DMSO is 0.5%, and the amount of DMSO is normalized across the assay plate. To determine an agonist action of the compounds on muscarinic receptors, the reconstituted compounds are added (25 μl compound/well) to the cell assay plate (containing 25 μl/well) using the multi-channel robotic system of the FLIPR 3 Instrument (Molecular Devices, Sunnyvale, Calif.). To determine a functional inhibitory action of the compounds on muscarinic receptors, the reconstituted compounds are added (25 μl compound/well) to the assay plate and pre-incubated for 15 min prior to adding 25 μl of Carbachol at 3× the EC80 for each muscarinic subtype. Alternatively, the compounds can be co-applied simultaneously with the agonist. In both assay modes, the fluorescence is recorded for 60 sec (excitation wavelength is […] and emission wavelength 540 nm) using the FLIPR 3 instrument.
# (§4) The potency, efficacy and selectivity of the muscarinic compounds were evaluated by screening the compound activity across the whole family (M1 to M5 cells). Compounds were also screened for activity on other proteins such as other GPCRs and ion channels to determine selectivity on M4 receptors.
# M4 muscarinic receptor = target: T2, M4 muscarinic receptor (Homo sapiens, UniProt P08173); assay: Functional mobilization of intracellular calcium (FLIPR, Fluo-3), M4-CHO cells; type: cell-based; conditions: for Emax: 100% efficacy is the maximum response obtained with the Carbachol control, read-out: M4 Efficacy
# T2 construct: expressed in transfected cells; host or cells: CHO cells (M4-CHO, under puromycin, zeocin and blasticidin selection)
# T2 sequence (P08173 1-479): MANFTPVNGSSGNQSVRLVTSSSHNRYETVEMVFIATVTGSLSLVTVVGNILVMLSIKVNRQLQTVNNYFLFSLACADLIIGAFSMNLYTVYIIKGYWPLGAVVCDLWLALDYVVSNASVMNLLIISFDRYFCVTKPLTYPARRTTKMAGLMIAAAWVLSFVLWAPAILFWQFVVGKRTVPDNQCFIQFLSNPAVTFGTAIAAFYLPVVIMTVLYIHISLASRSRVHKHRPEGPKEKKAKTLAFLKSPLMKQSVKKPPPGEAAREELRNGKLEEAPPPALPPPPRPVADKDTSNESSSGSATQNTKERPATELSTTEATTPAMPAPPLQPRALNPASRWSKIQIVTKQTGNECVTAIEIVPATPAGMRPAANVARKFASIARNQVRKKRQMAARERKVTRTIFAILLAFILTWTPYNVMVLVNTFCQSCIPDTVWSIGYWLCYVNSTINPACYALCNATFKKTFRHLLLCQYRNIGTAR
# Procedure: as §1, §2, §3, §4
# [1] = compound nos. 1-454, M1-CHO cells, calcium mobilization
# [2] = compound nos. 1-454, M4-CHO cells, calcium mobilization
smiles,measurement,setting,value
CCOC(=O)N1CCC(CN2CCC3(CC2)CN(C(C)=O)c2ccc(Cl)cc23)CC1 [compound 256],Emax,M1 muscarinic receptor; compound nos. 1-454,< 65%
same,M1 Activity,M1 muscarinic receptor; [1],++ (activity was measured to be between 0.7 μM and 3.0 μM)
same,Emax,M4 muscarinic receptor; compound nos. 1-454,< 55%
same,M4 Activity,M4 muscarinic receptor; [2],++ (activity was measured to be between 0.1 μM and 4.0 μM)
CC#CCOC(=O)N1CCC(N2CCC3(CC2)CN(C(C)=O)c2ccc(F)cc23)CC1 [compound 102],Emax,M1 muscarinic receptor; compound nos. 1-454,65 to 85%
same,M1 Activity,M1 muscarinic receptor; [1],+++ (activity was measured to be less than or equal to 0.7 μM)
same,Emax,M4 muscarinic receptor; compound nos. 1-454,55 to 70%
same,M4 Activity,M4 muscarinic receptor; [2],++ (activity was measured to be between 0.1 μM and 4.0 μM)
CCNC(=O)N1CC2(CCN(C3CC4CCC(C3)N4C(=O)OCC)CC2)c2cc(F)ccc21 (stereo not drawn) [compound 255],Emax,M1 muscarinic receptor; compound nos. 1-454,< 65%
same,M1 Activity,M1 muscarinic receptor; [1],+ (activity was measured to be greater than or equal to 3.0 μM)
same,Emax,M4 muscarinic receptor; compound nos. 1-454,< 55%
same,M4 Activity,M4 muscarinic receptor; [2],+ (activity was measured to be greater than or equal to 4.0 μM)
COCCOC(=O)N1CCC(N2CCC3(CC2)CN(C(C)=O)c2ccc(F)cc23)CC1 [compound 284],Emax,M1 muscarinic receptor; compound nos. 1-454,< 65%
same,M1 Activity,M1 muscarinic receptor; [1],++ (activity was measured to be between 0.7 μM and 3.0 μM)
same,Emax,M4 muscarinic receptor; compound nos. 1-454,< 55%
same,M4 Activity,M4 muscarinic receptor; [2],++ (activity was measured to be between 0.1 μM and 4.0 μM)
CCOC(=O)N1CCC(N2CCC3(CC2)CN(C(=O)c2ccccn2)c2ccc(F)cc23)CC1 [compound 331],Emax,M1 muscarinic receptor; compound nos. 1-454,< 65%
same,M1 Activity,M1 muscarinic receptor; [1],++ (activity was measured to be between 0.7 μM and 3.0 μM)
same,Emax,M4 muscarinic receptor; compound nos. 1-454,< 55%
same,M4 Activity,M4 muscarinic receptor; [2],+ (activity was measured to be greater than or equal to 4.0 μM)
CCCOC(=O)N1C2CCC1CC(N1CCC3(CC1)CN(C(=O)C1CC1)c1ccc(F)cc13)C2 (stereo not drawn) [compound 389],M1 Activity,M1 muscarinic receptor; compound nos. 1-454,++ (activity was measured to be between 0.7 μM and 3.0 μM)
same,Emax,M1 muscarinic receptor; compound nos. 1-454,65 to 85%
same,M4 Activity,M4 muscarinic receptor; compound nos. 1-454,+ (activity was measured to be greater than or equal to 4.0 μM)
same,Emax,M4 muscarinic receptor; compound nos. 1-454,< 55%
CC(=O)NC1CC2(CCN(C[C@H]3C[C@H]4CC[C@H]3C4)CC2)c2ccccc21 (stereo partly drawn) [compound 161],Emax,M1 muscarinic receptor; compound nos. 1-454,> 85%
same,M1 Activity,M1 muscarinic receptor; [1],++ (activity was measured to be between 0.7 μM and 3.0 μM)
same,Emax,M4 muscarinic receptor; compound nos. 1-454,> 70%
same,M4 Activity,M4 muscarinic receptor; [2],+ (activity was measured to be greater than or equal to 4.0 μM)
CCOC(=O)N1C2CCC1CC(N1CCC3(CC1)CNc1ccc(C)cc13)C2 (stereo not drawn) [compound 109],Emax,M1 muscarinic receptor; compound nos. 1-454,65 to 85%
same,M1 Activity,M1 muscarinic receptor; [1],+++ (activity was measured to be less than or equal to 0.7 μM)
same,Emax,M4 muscarinic receptor; compound nos. 1-454,< 55%
same,M4 Activity,M4 muscarinic receptor; [2],++ (activity was measured to be between 0.1 μM and 4.0 μM)
CC(=O)N1CC2(CCN(CC3CC4CCC3CC4)CC2)c2cc(F)ccc21 (stereo not drawn) [compound 366],Emax,M1 muscarinic receptor; compound nos. 1-454,< 65%
same,M1 Activity,M1 muscarinic receptor; [1],++ (activity was measured to be between 0.7 μM and 3.0 μM)
same,Emax,M4 muscarinic receptor; compound nos. 1-454,< 55%
same,M4 Activity,M4 muscarinic receptor; [2],+ (activity was measured to be greater than or equal to 4.0 μM)
CCCOC(=O)N1CCC(CN2CCC3(CC2)C[C@H](NC(C)=O)c2ccccc23)CC1 [compound 36],Emax,M1 muscarinic receptor; compound nos. 1-454,65 to 85%
same,M1 Activity,M1 muscarinic receptor; [1],+++ (activity was measured to be less than or equal to 0.7 μM)
same,Emax,M4 muscarinic receptor; compound nos. 1-454,> 70%
same,M4 Activity,M4 muscarinic receptor; [2],++ (activity was measured to be between 0.1 μM and 4.0 μM)
CN(C)C(=O)N1CC2(CCN(C3CCN(c4ncnc5ccsc45)CC3)CC2)c2cc(F)ccc21 [compound 496],Emax,M1 muscarinic receptor; compound nos. 455-509,> 100%
same,M1 Activity,M1 muscarinic receptor; compounds 455-509,+ (activity was measured to be greater than or equal to 5.0 μM)
same,Emax,M4 muscarinic receptor; compound nos. 455-509,25 to 100%
same,M4 Activity,M4 muscarinic receptor; compounds 455-509,++ (activity was measured to be between 2.0 μM and 5.0 μM)
CCOC(=O)N1CCC(N2CCC3(CC2)CN(C(C)=O)c2ccc(-c4ccoc4)cc23)CC1 [compound 128],Emax,M1 muscarinic receptor; compound nos. 1-454,< 65%
same,M1 Activity,M1 muscarinic receptor; [1],+++ (activity was measured to be less than or equal to 0.7 μM)
same,Emax,M4 muscarinic receptor; compound nos. 1-454,< 55%
same,M4 Activity,M4 muscarinic receptor; [2],++ (activity was measured to be between 0.1 μM and 4.0 μM)
Clc1ccc2c(c1)C1(CCN([C@H]3C[C@@H]4CC[C@H]3C4)CC1)CO2 [compound 181],Emax,M1 muscarinic receptor; compound nos. 1-454,65 to 85%
same,M1 Activity,M1 muscarinic receptor; [1],++ (activity was measured to be between 0.7 μM and 3.0 μM)
same,Emax,M4 muscarinic receptor; compound nos. 1-454,55 to 70%
same,M4 Activity,M4 muscarinic receptor; [2],+ (activity was measured to be greater than or equal to 4.0 μM)
CS(=O)(=O)N1CC2(CCN(C3CC4CCC(C3)N4C(=O)O[C@@H]3CCOC3)CC2)c2cc(F)ccc21 (stereo partly drawn) [compound 16],Emax,M1 muscarinic receptor; compound nos. 1-454,65 to 85%
same,M1 Activity,M1 muscarinic receptor; [1],+++ (activity was measured to be less than or equal to 0.7 μM)
same,Emax,M4 muscarinic receptor; compound nos. 1-454,55 to 70%
same,M4 Activity,M4 muscarinic receptor; [2],+++ (activity was measured to be less than or equal to 0.1 μM)
CC(C)NC(=O)N1C2CCC1CC(N1CCC3(CC1)COc1ccc(F)cc13)C2 (stereo not drawn) [compound 289],Emax,M1 muscarinic receptor; compound nos. 1-454,< 65%
same,M1 Activity,M1 muscarinic receptor; [1],+++ (activity was measured to be less than or equal to 0.7 μM)
same,Emax,M4 muscarinic receptor; compound nos. 1-454,< 55%
same,M4 Activity,M4 muscarinic receptor; [2],+ (activity was measured to be greater than or equal to 4.0 μM)
